Each structure is given as a SMILES string.

For the first experiment, the system named is m-IMCD3 cells. The experiment in a line: Inhibition of PGE2-stimulated in vitro cyst formation in 3D culture of m-IMCD3 cells (Experiment 4). In kind it is cell-based, mouse. Conditions: 3D culture. The method, then:
HEK 293 and MDCK cells (Public Health England, Cell Culture Collections) were maintained in Dulbecco's Modified Eagle's Medium (DMEM) supplemented with 10% (v/v) fetal bovine serum (FBS) (Seralab), 2 mM L-glutamine and 100 U/ml penicillin streptomycin cocktail (ThermoFisher); termed complete media. Clonal HEK 293 cell lines were maintained in complete media supplemented with 0.6 mg/mL G418 (Enzo Life Sciences). Mouse inner medullary collecting duct (m-IMCD3) cells [American Type Culture Collection (ATCC)] were maintained in media consisting of DMEM/Hams F-12 50/50 Mix (DMEM F12; Corning) supplemented with penicillin streptomycin cocktail (100 U/ml) and FBS (10% v/v) (DMEM F12-10% FBS).
The mouse Inner Medullary Collecting Duct cell line (m-IMCD3) spontaneously forms cystic spheroids in 3D culture with a Type 1 collagen/Matrigel extracellular matrix. This process can be stimulated with agents which raise intracellular cAMP and is used as an in vitro model for the formation of cystic structures in the kidneys of patients with ADPKD.
Rat Collagen I (Fisher Scientific) is prepared on ice by neutralising with 1 M NaOH and diluting with a 2×volume of DMEM/F12+10% FBS. This is mixed 1:1.1 with ice cold Matrigel (Corning) for coating plates (coating mix), and 1:0.93 with Matrigel for cell plating (plating mix).
The assay is conducted in the wells of a 96-well plate culture dish using a total volume of 130 μL of collagen/Matrigel/DMEM F12-10% FBS suspension in growth media for each matrix plug per individual well. Initially, 30 μL of collagen/Matrigel/DMEM F12-10% FBS (coating mix) is added into the well of a 96 well plate and the collagen is set to a gel by incubating at 37° C. for at least 15 minutes. A second layer of 100 μL collagen/Matrigel suspension (plating mix) containing m-IMCD3 cells (2.75×10^6 m-IMCD3 cells per 96-well plate) is layered over the coating mix and the collagen/Matrigel/cell mix again set to a gel by incubating at 37° C. Cell cultures are maintained at 37° C. in an atmosphere of 5% CO2, 95% air.
Between 18 and 24 h after plating, test compound(s) as DMSO stock solutions [0.1% (v/v) final DMSO concentration] and PGE2 (100 nM final concentration) in DMEM F12-10% FBS are added in quadruplicate wells per condition. Media, together with the test compound and PGE2 are replenished after 2 or 3 days. After 6 days of culture z stack images of the wells are captured using the Nikon Eclipse Ti2-E microscope. Nikon General Analysis software is used to measure the following parameters in each well: the mean cyst area, the number of cysts, and the total cyst area.
PDE4 long form activators inhibited in vitro cyst formation in m-IMCD3 cells. Data are shown in FIG. 2 and Table 4 as mean cyst area (%), compared to 100% for (DMSO+PGE2) and 0% for DMSO control.
In the case of `CCN1CCC(c2nc3ccc(C(=O)N[C@H]4CCOc5ccccc54)cn3n2)CC1` [Example 51, (S)—N-(chroman-4-yl)-2-(1-ethylpiperidin-4-yl)-[1,2,4]triazolo[1,5-a]pyridine-6-carboxamide], the “inhibition of PGE2-stimulated cyst formation in m-IMCD3 cells (FIG. 2, text)” value was “concentration-dependent inhibition”.

The same experiment, now with this note: Mus musculus, mIMCD3, 144 h, 10 μM test compound, mean cyst area compared to 100% for (DMSO + PGE2) and 0% for DMSO control, read-out: % Cyst area* after incubation with 10 μM test compound.
Take `Cc1ccncc1-c1nc2cc(C(=O)N[C@H]3CCOc4ccccc43)ccc2[nH]1` [Example 1, (S)—N-(chroman-4-yl)-2-(4-methylpyridin-3-yl)-1H-benzo[d]imidazole-5-carboxamide]: the activity at 10 µM came out at 26%. On to `Cc1ncccc1-c1nc2cc(C(=O)N[C@H]3CCOc4ccccc43)ccc2[nH]1` [Example 3, (S)—N-(chroman-4-yl)-2-(2-methylpyridin-3-yl)-1H-benzo[d]imidazole-5-carboxamide], for which the activity at 10 µM turned out to be 20%.

On to `Cc1ccc(-c2nc3cc(C(=O)N[C@H]4CCOc5ccccc54)ccc3n2C)cn1` [Example 21, (S)—N-(chroman-4-yl)-1-methyl-2-(6-methylpyridin-3-yl)-1H-benzo[d]imidazole-5-carboxamide], for which the activity at 10 µM worked out at 3%. The same measure, in the same setting: under `Cc1ncccc1-c1nc2cc(C(=O)N[C@H]3CCOc4ccccc43)ccc2n1C` [Example 22, (S)—N-(chroman-4-yl)-1-methyl-2-(2-methylpyridin-3-yl)-1H-benzo[d]imidazole-5-carboxamide] stands 18%; under `Cc1cncc(-c2nc3cc(C(=O)N[C@H]4CCOc5ccccc54)ccc3n2C)c1` [Example 23, (S)—N-(chroman-4-yl)-1-methyl-2-(5-methylpyridin-3-yl)-1H-benzo[d]imidazole-5-carboxamide], 12%.

As to `Cn1c(-c2cccnc2)nc2cc(C(=O)N[C@H]3CCOc4ccccc43)ccc21` [Example 24, (S)—N-(chroman-4-yl)-1-methyl-2-(pyridin-3-yl)-1H-benzo[d]imidazole-5-carboxamide], the activity at 10 µM is 21%. As to `Cn1c(N2CCNCC2)nc2ccc(C(=O)N[C@H]3CCOc4ccccc43)cc21` [Example 31, (S)—N-(chroman-4-yl)-1-methyl-2-(piperazin-1-yl)-1H-benzo[d]imidazole-6-carboxamide], the activity at 10 µM worked out at 3%.

For the compound `Cn1c(N2CCNCC2)nc2cc(C(=O)N[C@H]3CCOc4ccccc43)ccc21` [Example 33, (S)—N-(chroman-4-yl)-1-methyl-2-(piperazin-1-yl)-1H-benzo[d]imidazole-5-carboxamide], the activity at 10 µM stood at 19%. `O=C(N[C@H]1CCOc2ccccc21)c1ccc2nc(N3CCNCC3)nn2c1` [Example 40, (S)—N-(chroman-4-yl)-2-(piperazin-1-yl)-[1,2,4]triazolo[1,5-a]pyridine-6-carboxamide]: the activity at 10 µM came out at 11%. Regarding `CCN1CCN(c2nc3ccc(C(=O)N[C@H]4CCOc5ccccc54)cn3n2)CC1` [Example 45, (S)—N-(chroman-4-yl)-2-(4-ethylpiperazin-1-yl)-[1,2,4]triazolo[1,5-a]pyridine-6-carboxamide], the activity at 10 µM came out at 15%. Same read-out and setting: under `CC(C)N1CCN(c2nc3ccc(C(=O)N[C@H]4CCOc5ccccc54)cn3n2)CC1` [Example 46, (S)—N-(chroman-4-yl)-2-(4-isopropylpiperazin-1-yl)-[1,2,4]triazolo[1,5-a]pyridine-6-carboxamide] stands 4%; under `O=C(N[C@H]1CCc2ccccc21)c1ccc2nc(N3CCNCC3)nn2c1` [Example 48, (S)—N-(2,3-dihydro-1H-inden-1-yl)-2-(piperazin-1-yl)-[1,2,4]triazolo[1,5-a]pyridine-6-carboxamide], 22%; under `CN1CCC(c2nc3ccc(C(=O)N[C@H]4CCOc5ccccc54)cn3n2)CC1` [Example 50, (S)—N-(chroman-4-yl)-2-(1-methylpiperidin-4-yl)-[1,2,4]triazolo[1,5-a]pyridine-6-carboxamide], 6%. `CCN1CCC(c2nc3ccc(C(=O)N[C@H]4CCOc5ccccc54)cn3n2)CC1` [Example 51, (S)—N-(chroman-4-yl)-2-(1-ethylpiperidin-4-yl)-[1,2,4]triazolo[1,5-a]pyridine-6-carboxamide]: the activity at 10 µM came to 6%. Consider `Cc1ncccc1-c1nc2cc(C(=O)N[C@H]3CCOc4ccccc43)ccn2n1` [Example 52, (S)—N-(chroman-4-yl)-2-(2-methylpyridin-3-yl)-[1,2,4]triazolo[1,5-a]pyridine-7-carboxamide], for which the activity at 10 µM was 19%. As for `CN1CCN(c2nc3cc(C(=O)N[C@H]4CCOc5ccccc54)ccn3n2)CC1` [Example 56, (S)—N-(chroman-4-yl)-2-(4-methylpiperazin-1-yl)-[1,2,4]triazolo[1,5-a]pyridine-7-carboxamide], the activity at 10 µM worked out at 14%. On the same count and under the same terms, in the case of `O=C(N[C@H]1CCOc2ccccc21)c1ccn2nc(N3CCCCC3)nc2c1` [Example 59, (S)—N-(chroman-4-yl)-2-(piperidin-1-yl)-[1,2,4]triazolo[1,5-a]pyridine-7-carboxamide] it was 26%; in that of `CCN1CCN(c2nc3cc(C(=O)N[C@H]4CCOc5ccccc54)ccn3n2)CC1` [Example 60, (S)—N-(chroman-4-yl)-2-(4-ethylpiperazin-1-yl)-[1,2,4]triazolo[1,5-a]pyridine-7-carboxamide], 18%.

Regarding `CC(C)N1CCN(c2nc3cc(C(=O)N[C@H]4CCOc5ccccc54)ccn3n2)CC1` [Example 61, (S)—N-(chroman-4-yl)-2-(4-isopropylpiperazin-1-yl)-[1,2,4]triazolo[1,5-a]pyridine-7-carboxamide], the activity at 10 µM was determined as 10%. In the case of `O=C(N[C@H]1CCc2ccccc21)c1ccn2nc(N3CCNCC3)nc2c1` [Example 62, (S)—N-(2,3-dihydro-1H-inden-1-yl)-2-(piperazin-1-yl)-[1,2,4]triazolo[1,5-a]pyridine-7-carboxamide], the activity at 10 µM came out at 0%.

Turning to `CN1CCN(c2nc3cc(C(=O)N[C@H]4CCc5ccccc54)ccn3n2)CC1` [Example 64, (S)—N-(2,3-dihydro-1H-inden-1-yl)-2-(4-methylpiperazin-1-yl)-[1,2,4]triazolo[1,5-a]pyridine-7-carboxamide], the activity at 10 µM is 1%. Still for that read-out and setting: under `O=C(NC1CCCC1)c1ccc2nc(N3C4CCC3CNC4)cn2c1` [Example 67, 2-(3,8-diazabicyclo[3.2.1]octan-8-yl)-N-cyclopentylimidazo[1,2-a]pyridine-6-carboxamide] stands 27%. As for `O=C(N[C@H]1CCOc2ccccc21)c1cnc2cc(N3CCNCC3)nn2c1` [Example 68, (S)—N-(chroman-4-yl)-2-(piperazin-1-yl)pyrazolo[1,5-a]pyrimidine-6-carboxamide], the activity at 10 µM amounted to 9%. Regarding `CN1CCN(c2cc3ncc(C(=O)N[C@H]4CCOc5ccccc54)cn3n2)CC1` [Example 69, (S)—N-(chroman-4-yl)-2-(4-methylpiperazin-1-yl)pyrazolo[1,5-a]pyrimidine-6-carboxamide], the activity at 10 µM worked out at 7%. Same read-out and setting: under `CCN1CCN(c2cc3ncc(C(=O)N[C@H]4CCOc5ccccc54)cn3n2)CC1` [Example 70, (S)—N-(chroman-4-yl)-2-(4-ethylpiperazin-1-y)pyrazolo[1,5-a]pyrimidine-6-carboxamide] stands 5%; under `CCN1CCN(c2cc3ncc(C(=O)NC4CCCCC4)cn3n2)CC1` [Example 73, N-cyclohexyl-2-(4-ethylpiperazin-1-yl)pyrazolo[1,5-a]pyrimidine-6-carboxamide], -3%.

Take `CCN1CCN(c2cc3ncc(C(=O)N[C@H]4CCc5ccccc54)cn3n2)CC1` [Example 75, (S)—N-(2,3-dihydro-1H-inden-1-yl)-2-(4-ethylpiperazin-1-yl)pyrazolo[1,5-a]pyrimidine-6-carboxamide]: the activity at 10 µM was 19%.

Turning to `CN1CCN(c2cc3ncc(C(=O)NC4CCCC4)cn3n2)CC1` [Example 76, N-cyclopentyl-2-(4-methylpiperazin-1-yl)pyrazolo[1,5-a]pyrimidine-6-carboxamide], the activity at 10 µM amounted to 9%. The same measure, in the same setting: under `CN1CCN(c2cc3ncc(C(=O)NC4CCCCC4)cn3n2)CC1` [Example 77, N-cyclohexyl-2-(4-methylpiperazin-1-yl)pyrazolo[1,5-a]pyrimidine-6-carboxamide] stands 0%.

For the origin of these results see US20260007680A1, “Compounds and Their Use as PDE4 Activators” (Mironid Limited, priority 2022, published 2026).
